Results on 5 molecules are retold here after patent US20020111486A1, “Transition metal-cyclopentadienyl-tropane conjugates” (priority 1999, published 2002).

Common to all, as to settings: mean±SEM; rat striatal and cortical tissues
Experiment [1] concerns the target T1, dopamine transporter (DAT) (Rattus norvegicus, UniProt P23977).
T1 construct: from tissue; host or cells: rat striatal tissue
Kind of experiment: Dopamine transporter binding affinity in rat striatal tissue. As to the method:
(§1) The binding affinities (mean±SEM) of compounds 1a, 1b, 1c, 1d, and 1e for the dopamine transporter (DAT), the serotonin transporter (5-HTT), and norepinephrine (NET) were evaluated in, respectively, rat striatal and cortical tissues according to methods described in Tamagnan et al., Advances in Neurology, Parkinson's Disease. 80: 91-103 (1999). The results are summarized in Table 1 below. β-CIT was run concurrently as a control.

In the next experiment the target is T2, norepinephrine (NET) (Rattus norvegicus, UniProt Q63380).
T2 construct: from tissue
As to the kind of experiment: Norepinephrine transporter binding affinity in rat tissue. As to the method:
as §1

For experiment [2], the target named is T3, serotonin transporter (5-HTT) (Rattus norvegicus, UniProt P31652).
T3 construct: from tissue
Kind of experiment: Serotonin transporter binding affinity in rat tissue. The procedure: as §1

As a reminder, the Ki is a measure of affinity in units of concentration, obtained from inhibition or displacement. A higher Ki goes with lower affinity.

T3 sequence (P31652 whole entry): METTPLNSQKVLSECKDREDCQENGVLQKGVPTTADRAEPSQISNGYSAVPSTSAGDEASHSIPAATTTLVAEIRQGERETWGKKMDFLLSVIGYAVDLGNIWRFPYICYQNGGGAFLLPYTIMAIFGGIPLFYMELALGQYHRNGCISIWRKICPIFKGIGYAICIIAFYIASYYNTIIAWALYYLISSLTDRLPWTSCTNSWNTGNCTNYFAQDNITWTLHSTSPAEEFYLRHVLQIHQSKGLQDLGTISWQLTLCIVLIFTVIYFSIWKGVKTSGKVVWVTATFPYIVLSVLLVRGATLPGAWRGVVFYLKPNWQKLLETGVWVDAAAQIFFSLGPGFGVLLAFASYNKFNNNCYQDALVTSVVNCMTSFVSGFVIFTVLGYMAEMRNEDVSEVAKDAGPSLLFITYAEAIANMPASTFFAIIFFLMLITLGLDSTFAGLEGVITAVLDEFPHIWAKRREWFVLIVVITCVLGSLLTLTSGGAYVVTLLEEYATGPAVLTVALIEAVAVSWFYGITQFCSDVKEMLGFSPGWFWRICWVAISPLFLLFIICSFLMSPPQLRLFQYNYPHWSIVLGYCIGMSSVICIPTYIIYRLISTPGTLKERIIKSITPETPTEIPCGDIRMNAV
T1 sequence (P23977 whole entry): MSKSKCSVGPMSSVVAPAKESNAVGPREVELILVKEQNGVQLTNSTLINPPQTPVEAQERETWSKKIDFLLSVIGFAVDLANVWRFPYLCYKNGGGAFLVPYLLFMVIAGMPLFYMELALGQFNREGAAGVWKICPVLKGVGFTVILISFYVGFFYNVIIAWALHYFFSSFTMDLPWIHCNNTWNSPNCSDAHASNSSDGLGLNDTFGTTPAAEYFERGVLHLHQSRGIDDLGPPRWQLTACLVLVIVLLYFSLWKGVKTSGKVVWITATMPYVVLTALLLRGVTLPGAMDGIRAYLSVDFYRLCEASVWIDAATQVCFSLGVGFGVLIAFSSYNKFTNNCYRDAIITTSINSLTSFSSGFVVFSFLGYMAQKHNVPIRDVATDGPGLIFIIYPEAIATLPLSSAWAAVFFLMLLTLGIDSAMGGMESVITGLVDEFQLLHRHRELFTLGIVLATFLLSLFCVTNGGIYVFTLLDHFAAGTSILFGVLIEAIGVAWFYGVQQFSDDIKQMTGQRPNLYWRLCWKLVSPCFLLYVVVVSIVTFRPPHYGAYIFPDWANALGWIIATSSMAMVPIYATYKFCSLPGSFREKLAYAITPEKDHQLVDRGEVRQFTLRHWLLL
T2 sequence (Q63380 1-617): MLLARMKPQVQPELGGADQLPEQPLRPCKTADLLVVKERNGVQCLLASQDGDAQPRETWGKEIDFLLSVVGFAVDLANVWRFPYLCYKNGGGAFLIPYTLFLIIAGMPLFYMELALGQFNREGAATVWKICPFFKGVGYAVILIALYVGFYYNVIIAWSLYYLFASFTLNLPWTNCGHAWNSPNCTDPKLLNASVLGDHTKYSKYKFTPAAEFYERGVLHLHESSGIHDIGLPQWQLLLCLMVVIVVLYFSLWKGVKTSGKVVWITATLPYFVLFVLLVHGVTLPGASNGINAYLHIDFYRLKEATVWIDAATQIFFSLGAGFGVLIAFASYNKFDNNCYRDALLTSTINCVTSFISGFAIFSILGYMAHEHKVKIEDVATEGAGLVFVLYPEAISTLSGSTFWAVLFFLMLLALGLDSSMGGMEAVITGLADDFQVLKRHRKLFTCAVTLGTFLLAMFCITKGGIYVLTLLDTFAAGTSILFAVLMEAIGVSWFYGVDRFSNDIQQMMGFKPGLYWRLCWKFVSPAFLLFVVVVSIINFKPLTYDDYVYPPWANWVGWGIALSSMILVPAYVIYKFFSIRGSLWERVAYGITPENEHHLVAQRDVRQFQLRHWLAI

For the molecule “3-(4-Chlorophenyl)-8-(3-tricarbonylrhenatocyclopentadienyloxy-carbonylpropyl)-8-aza-bicyclo[3.2.1 ]octane-2-carboxylic acid methyl ester [Compound 1b]”, the inhibitory constant (Ki) in experiment [1] was determined as 4.18 ± 0.33 nM; at norepinephrine (NET) it was 74 ± 8.2 nM; in experiment [2] it was 5.28 ± 0.21 nM.
As for “3β-(4-Chlorophenyl)-8-(4-cyclopentadienyltricarbonyl rhenium-butyl)-8-azabicyclo[3.2.1 ]octane-2β-carboxylic acid methyl ester [Compound 1d]”, the Ki stood at 5.45 ± 0.64 nM in experiment [1], 199 ± 30 nM on norepinephrine (NET) and 1.14 ± 0.16 nM in experiment [2].
On to “8-Methyl-3β-[4 carbonyl -(cyclopentadienyltricarbonyl rhenium)-phenyl]-8-azabicyclo[3.2.1 ]octane-2β-carboxylic acid methyl ester [Compound 1c]”, for which the values for the Ki (in experiment [1]; at norepinephrine (NET); in experiment [2]) were over 10000 nM, over 30000 nM and over 10000 nM, respectively.
As to `COC(=O)C1C(c2ccc(I)cc2)CC2CCC1N2C` (stereo not drawn) [β-CIT, β-Carbomethoxy-3β-(4-iodophenyl) tropane, reference compound], the Ki in experiment [1] came to 0.96 ± 0.15 nM; on norepinephrine (NET) it was 2.8 ± 0.4 nM; in experiment [2], 0.46 ± 0.06 nM.
The like results for “N-(4-oxo-4-tricarbonylcyclopentadienylrhenio)-2β-hydroxymethyl-3β-(4-chlorophenyl)-nortropane [Compound 1a]” were, in that order, 13 ± 1.8 nM, 74 ± 8.2 nM and 13.3 ± 1 nM.
